{"source": "patent US20060166934A1", "about": "“Composition comprising phytosphingosine derivatives for apoptosis induction” (Tae-Yoon Kim, priority 2002, published 2006)", "key": {"[1]": {"system": "human keratinocyte cell line HaCaT cells", "experiment": "MTT assay, cytotoxicity in human keratinocyte cell line", "assay_type": "cell-based", "details": "for Cell viability: 24 hours, con = 100, in %", "protocol": "(§1) Firstly, the cytotoxicity is measured by the MTT assay. Phytosphingosine (PS), phytosphingosine-HCl (PS-HCl), C6-phytosphingosine (C6-PS), CLA-phytosphingosine (CLA-PS), tetraacetyl phytosphingosine (TAPS), and N-acetyl phytosphingosine (NAPS) are dissolved into DMSO to have the final concentration of 1-100 μM.\n(§2) In order to study the effects of the compositions of the present invention on the cytotoxicity in the human keratinocyte cell line HaCaT cells, the cell viability is analyzed by the MTT (3-[4,5-dimethylthiazol-2-yl]-2,5-diphenyltetrazolium bromide) assay. HaCaT cells are supplied by Professor N. Fuseng of German Cancer Research in Germany. HaCaT cells are seeded in a density of 1×10^6 cells in a […] and cultured in DMEM (Dulbecco's Modified Eagle Medium) containing 10% fetal bovine serum (FBS, GIBCO), 100 units/ml penicillin, and 100 μg/ml streptomycin for 48 hours. They are treated with trypsin and 1-2×10^4 cells per well are seeded again in a 96-well plate by using a serum-free culture medium, about 3 hours after which they are cultured by treatment with phytosphingosine derivatives. After they are cultured for 24 hours, the MTT reagent is added at a concentration of 2 mg/ml, cultured for 4 hours, suspended in DMSO after removing the culture medium completely in order to measure O.D. at 540 nm. C2-ceramide is used for comparison."}, "[2]": {"system": "human umbilical vein endothelial cells (HUVEC)", "experiment": "MTT assay, cytotoxicity in HUVEC", "assay_type": "cell-based", "details": "for Cell viability: HUVEC, con = 100, in %", "protocol": "as §1, §2\nThe MTT assay is used for the above purpose. Primary human umbilical vein endothelial cells are cultured from the human umbilical vein. The method of cell culture and the MTT assay are the same as those in the above. C2-ceramide is used for comparison."}, "[3]": {"system": "A431 cells, human skin cancer cell line", "experiment": "MTT assay, cytotoxicity in human skin cancer cell line", "assay_type": "cell-based", "details": "for Cell viability: A431, con = 100, in %", "protocol": "as §1, §2\nIn order to study the effects of the compositions of the present invention on the cytotoxicity in A431 cells, human skin cancer cell line, the MTT assay is used. The method of cell culture and MTT assay are the same as those in the above method. C2-ceramide is used for comparison."}, "[4]": {"system": "HaCaT cells", "experiment": "TUNEL assay, induction of apoptosis", "assay_type": "cell-based, human", "details": "for cell death (TUNEL): 10 μM and 30 μM, 24 hours, FIG. 6; for time after treating at which apoptosis is induced: 30 μM, FIG. 7", "protocol": "Induction of apoptosis of HaCaT cells by the compositions of the present invention is observed in the TUNEL-TdT-mediated dUTP nick end labeling-assay by using in situ cell death detection kit, POD (Enzo, 1684817, Boeringer Mannhein).\nIn the TC chamber (Lab-TEK chamber Slide w/cover Permanox Slide sterile 1 well, 177410), 1×10^6 HaCaT cells are seeded and cultured on the DMEM medium for longer than 18 hours and treated with phytosphingosine derivatives. The cells are fixed 24 hours after treating with drugs, and the endogenous peroxidase is blocked with a blocking solution (3% H2O2 in MeOH), and permeation of cells is increased by using a permeabilization solution (0.1% Triton X-100 in 0.1% sodium citrate). Then apoptotic cells are labeled by using the mixture of tunnel reaction and are colored by using the DAB substrate (DAKO, K3465). Colored cells are observed by using a microscope."}, "[5]": {"system": "HaCaT cells human keratinocyte cell line", "experiment": "MTT assay, combined administration with Vit D3 or calcipotriol", "assay_type": "cell-based", "protocol": "In order to study the synergistic effect in the cytotoxicity when the compositions of the present invention are administered in combination with Vit D3 or calcipotriol, the cell viability is analyzed by MTT assay method in HaCaT cells human keratinocyte cell line.\nTo HaCaT cells, 1 μM of Vit D3 or calcipotriol, or 10 μM each of NAPS and TAPS, is administered singly or in combination with each other, and they are cultured for 24 hours. And the effects of these drugs on the cytotoxicity according to the single or combined administration are observed by MTT assay. C2-ceramide is used for comparison."}, "[6]": {"system": "caspase-3", "experiment": "Immunoblot analysis of active caspase-3", "assay_type": "cell-based, human", "details": "HaCaT, FIG. 11; for time to maximum active caspase-3: after treatment; for maximum increase of active caspase-3 (expression of induction): immunoblot", "protocol": "In the confirmation of apoptosis-related proteins, the immunoblot analysis is performed in order to look into the effects of the compositions of the present invention on the expression of caspase-3, p53, and Chk1 proteins related to the induction of apoptosis.\nHaCaT cells are cultured on a 100-mm dish and collected at the indicative time. The proteins are extracted by adding 500 μl of RIPA lysis buffer (1% Nonidet P-40, 1% sodium deoxycholate, 0.1% SDS, […], 0.01 M sodium phosphate, pH 7.2, 2 mM EDTA, 50 mM sodium fluoride and 0.2 mM sodium vanadate), and the concentration is measured by using the Bradford method. 1\nExtracted proteins is electrophoresed on 12% polyacrylamide gel, and they are transferred to the nitrocellulose membrane. The membrane blocked with 5% non-fat milk is reacted with the primary antibodies (caspase-3, p53, and Chk1), washed, and reacted with the secondary HRP-conjugated antibody. The intensity of proteins is analyzed by using the ECL kit."}, "[7]": {"system": "HaCaT cells", "experiment": "MTT assay, combined treatment with UVB irradiation", "assay_type": "cell-based, human", "set-up": "Cell viability: unit not given here", "details": "for cytotoxicity: 10 μM only; for Cell viability: HaCaT", "protocol": "In order to study the synergistic effect in the cytotoxicity by the cotreatment with administration of the compositions of the present invention and with UVB irradiation, the cell viability is analyzed by MTT assay method in HaCaT cells. On a 100-mm dish, 1×10^6 HaCaT cells are seeded and cultured in DMEM containing 10% fetal bovine serum, 100 units/ml penicillin, and 100 μg/ml streptomycin for 48 hours. They are treated with trypsin, and 1-2×10^4 cells per well are seeded on a 96-well plate again by using a serum-free medium, which is removed after about 3 hours. HaCaT cells are washed with PBS three times, and 3.5 ml of PBS per plate is added. It is then irradiated with 200 J/m^2 of UVB. After irradiation, the medium is replaced with a DMEM medium. Then it is treated with the phytosphingosine derivatives of the present invention, and cultured for 24 hours. After 2 mg/ml of the MTT reagent is added, it is cultured for 4 hours. The medium is removed completely, the cells are suspended in DMSO, and O.D. is measured at 540 nm."}}, "data": [{"compound": "CCCCCCCCCCCCCC[C@@H](O)[C@@H](O)[C@H](CO)NC(C)=O", "note": "[NAPS, N-acetyl phytosphingosine]", "values": [{"measurement": "cytotoxicity", "setting": "[1]; human, 24 h, 30 μM", "value": 83, "unit": "%"}, {"measurement": "cytotoxicity", "setting": "[2]; human, 24 h, 30 μM", "value": "86-91%"}, {"measurement": "cytotoxicity", "setting": "[3]; human, 24 h, 50 μM", "value": "95-98%"}, {"measurement": "cell death (TUNEL)", "setting": "[4]", "value": "most significant effect of cell death"}, {"measurement": "time after treating at which apoptosis is induced", "setting": "[4]", "value": 4, "unit": "h"}, {"measurement": "Cell viability", "setting": "[5]; human, 24 h, 10 µM", "value": "86 ± 2"}, {"measurement": "cytotoxicity", "setting": "[5]; human, 24 h, 10 µM", "value": 14, "unit": "%"}, {"measurement": "time after treatment at which cleavage to active caspase-3 is increased significantly", "setting": "[6]", "value": 30, "unit": "min"}, {"measurement": "time for which increased active caspase-3 is maintained", "setting": "[6]", "value": 12, "unit": "h"}, {"measurement": "time to maximum active caspase-3", "setting": "[6]", "value": "≤ 3", "unit": "h"}, {"measurement": "maximum increase of active caspase-3 (expression of induction)", "setting": "[6]", "value": 6, "unit": "folds"}, {"measurement": "cytotoxicity", "setting": "[7]; no UVB", "value": 33, "unit": "%"}]}, {"compound": "tetraacetyl phytosphingosine [TAPS]", "values": [{"measurement": "Cell viability", "setting": "[1]; 1 μM, HaCaT", "value": "94 ± 0.1"}, {"measurement": "Cell viability", "setting": "[1]; 3 μM, HaCaT", "value": "93 ± 2.9"}, {"measurement": "Cell viability", "setting": "[1]; 10 μM, HaCaT", "value": "76 ± 1.4"}, {"measurement": "Cell viability", "setting": "[1]; 30 μM, HaCaT", "value": "17 ± 1.1"}, {"measurement": "cytotoxicity", "setting": "[1]; 30 μM, HaCaT", "value": 83, "unit": "%"}, {"measurement": "Cell viability", "setting": "[2]; 3.5 μM", "value": "47 ± 8.4"}, {"measurement": "Cell viability", "setting": "[2]; 7 μM", "value": "22 ± 1.9"}, {"measurement": "Cell viability", "setting": "[2]; 15 μM", "value": "15 ± 0.7"}, {"measurement": "Cell viability", "setting": "[2]; 30 μM", "value": "9 ± 0.5"}, {"measurement": "Cell viability", "setting": "[3]; 3 μM", "value": "113 ± 11.2"}, {"measurement": "Cell viability", "setting": "[3]; 10 μM", "value": "83 ± 13.9"}, {"measurement": "Cell viability", "setting": "[3]; 30 μM", "value": "12 ± 1.7"}, {"measurement": "Cell viability", "setting": "[3]; 50 μM", "value": "5 ± 1.2"}, {"measurement": "cell death (TUNEL)", "setting": "[4]", "value": "most significant effect of cell death"}, {"measurement": "time after treating at which apoptosis is induced", "setting": "[4]", "value": 4, "unit": "h"}, {"measurement": "cytotoxicity", "setting": "[5]; 10 μM combined application with Vit D3", "value": 66, "unit": "%"}, {"measurement": "cytotoxicity", "setting": "[5]; 10 μM combined application with calcipotriol", "value": 64, "unit": "%"}, {"measurement": "Cell viability", "setting": "[5]; 10 μM combined with Vit D3 (1 μM), 24 hours, HaCaT, in %", "value": "34 ± 4"}, {"measurement": "Cell viability", "setting": "[5]; 10 μM combined with calcipotriol (1 μM), 24 hours, HaCaT, in %", "value": "36 ± 8"}, {"measurement": "cytotoxicity", "setting": "[5]; 10 μM single administration", "value": 24, "unit": "%"}, {"measurement": "Cell viability", "setting": "[5]; 10 μM singly, 24 hours, HaCaT, in %", "value": "76 ± 2"}, {"measurement": "time for which increased active caspase-3 is maintained", "setting": "[6]", "value": 24, "unit": "h"}, {"measurement": "time to maximum active caspase-3", "setting": "[6]", "value": "≤ 3", "unit": "h"}, {"measurement": "maximum increase of active caspase-3 (expression of induction)", "setting": "[6]", "value": 5, "unit": "folds"}, {"measurement": "Cell viability", "setting": "[7]; 1 μM + UVB 200 J/m^2, 24 hours", "value": "27 ± 7.1"}, {"measurement": "Cell viability", "setting": "[7]; 1 μM, no UVB, 24 hours", "value": "111 ± 7.0"}, {"measurement": "Cell viability", "setting": "[7]; 3 μM + UVB 200 J/m^2, 24 hours", "value": "27 ± 3.9"}, {"measurement": "Cell viability", "setting": "[7]; 3 μM, no UVB, 24 hours", "value": "97 ± 10.0"}, {"measurement": "Cell viability", "setting": "[7]; 5 μM + UVB 200 J/m^2, 24 hours", "value": "16 ± 3.2"}, {"measurement": "Cell viability", "setting": "[7]; 5 μM, no UVB, 24 hours", "value": "83 ± 8.0"}, {"measurement": "Cell viability", "setting": "[7]; 10 μM + UVB 200 J/m^2, 24 hours", "value": "2 ± 0.1"}, {"measurement": "cytotoxicity", "setting": "[7]; no UVB", "value": 57, "unit": "%"}, {"measurement": "Cell viability", "setting": "[7]; 10 μM, no UVB, 24 hours", "value": "43 ± 4.0"}]}]}
